Consider 14 compounds from US8822517B2, “Arylosulfonamides for the treatment of CNS diseases” (Adamed SP. Z O.O., priority 2010, dated 2014).

Each structure is given as a SMILES string.

The target in assay [1] is serotoninergic 5-HT7 receptor (Homo sapiens, UniProt P34969). Description: Binding assay 5-HT7 (h), [3H]LSD, CHO cells. On the set-up: expressed in transfected cells; host or cells: CHO cells. The settings on record: read-out: 5-HT7. A digest of the protocol: (§1)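 Scintillation counting detects receptor-bound radioligand. Compound tested at 1×10^−6 M.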
serotoninergic 5-HT7 receptor, sequence (P34969 whole entry): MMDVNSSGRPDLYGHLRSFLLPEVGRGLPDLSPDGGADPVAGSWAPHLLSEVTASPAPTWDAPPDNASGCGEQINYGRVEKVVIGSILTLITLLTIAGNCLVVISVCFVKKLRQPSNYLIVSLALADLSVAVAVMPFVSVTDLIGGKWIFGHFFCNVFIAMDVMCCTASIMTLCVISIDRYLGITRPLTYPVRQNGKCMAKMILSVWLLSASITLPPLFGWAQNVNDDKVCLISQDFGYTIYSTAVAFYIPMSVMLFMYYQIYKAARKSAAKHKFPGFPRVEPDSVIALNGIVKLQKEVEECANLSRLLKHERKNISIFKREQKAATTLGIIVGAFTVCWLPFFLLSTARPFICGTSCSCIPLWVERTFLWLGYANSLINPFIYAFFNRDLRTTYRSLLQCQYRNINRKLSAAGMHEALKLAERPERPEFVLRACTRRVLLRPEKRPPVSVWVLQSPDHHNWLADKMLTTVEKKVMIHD
Assay [2] has as its target serotoninergic 5-HT6 receptor (Homo sapiens, UniProt P50406). Description: Binding assay 5-HT6 (h), [3H]LSD, CHO cells. The conditions noted are these: read-out: 5-HT6. On the set-up: expressed in transfected cells; host or cells: CHO cells. A digest of the protocol: as §1
The target in the next assay is dopaminergic D3 receptor (Homo sapiens, UniProt P35462). Description: Binding assay D3 (h), [3H]methyl-spiperone, CHO cells. On the set-up: expressed in transfected cells; host or cells: CHO cells. The settings on record: read-out: D3 [%]. The essentials: as §1
dopaminergic D3 receptor, sequence (P35462 whole entry): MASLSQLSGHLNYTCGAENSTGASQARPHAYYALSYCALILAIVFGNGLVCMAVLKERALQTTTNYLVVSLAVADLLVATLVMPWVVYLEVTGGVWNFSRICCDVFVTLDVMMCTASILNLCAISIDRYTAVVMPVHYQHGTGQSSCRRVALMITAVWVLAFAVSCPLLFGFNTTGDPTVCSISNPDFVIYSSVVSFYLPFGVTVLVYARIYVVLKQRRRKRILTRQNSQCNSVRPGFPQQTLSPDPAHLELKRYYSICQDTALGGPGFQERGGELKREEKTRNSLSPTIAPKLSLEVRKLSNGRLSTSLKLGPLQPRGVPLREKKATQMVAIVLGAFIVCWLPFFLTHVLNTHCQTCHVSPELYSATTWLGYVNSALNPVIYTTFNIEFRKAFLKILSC
The target in assay [3] is T1, serotoninergic 5-HT1A receptor (Homo sapiens, UniProt P08908).
T1 sequence (P08908 1-422): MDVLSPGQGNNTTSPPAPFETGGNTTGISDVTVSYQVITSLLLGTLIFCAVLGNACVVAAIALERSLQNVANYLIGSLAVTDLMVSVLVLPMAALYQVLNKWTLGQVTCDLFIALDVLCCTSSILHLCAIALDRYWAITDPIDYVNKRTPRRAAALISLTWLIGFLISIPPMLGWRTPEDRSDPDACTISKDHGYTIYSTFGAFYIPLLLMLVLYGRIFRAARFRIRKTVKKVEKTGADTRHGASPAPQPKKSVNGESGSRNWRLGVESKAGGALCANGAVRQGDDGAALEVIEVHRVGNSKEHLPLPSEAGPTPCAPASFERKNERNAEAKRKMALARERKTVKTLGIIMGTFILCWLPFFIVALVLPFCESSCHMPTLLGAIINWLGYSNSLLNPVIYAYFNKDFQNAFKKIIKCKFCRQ
In words: Binding assay 5-HT1A (h), [3H]8-OH-DPAT, HEK-293 cells. Further details: expressed in transfected cells; host or cells: HEK-293 cells. The settings on record: read-out: 5-HT1A. A digest of the protocol:
as §1

For another assay, the system named is adrenergic α1 receptor. In words: Binding assay α1 (non-selective), [3H]prazosin, rat cerebral cortex. The settings on record: percent inhibition of control specific binding; compounds tested at 1×10^−6 M. The essentials: as §1
In assay [4] the target is T2, serotonine transporter (SERT) receptor (Homo sapiens, UniProt P31645).
T2 construct: expressed in transfected cells; host or cells: CHO cells
T2 sequence (P31645 whole entry): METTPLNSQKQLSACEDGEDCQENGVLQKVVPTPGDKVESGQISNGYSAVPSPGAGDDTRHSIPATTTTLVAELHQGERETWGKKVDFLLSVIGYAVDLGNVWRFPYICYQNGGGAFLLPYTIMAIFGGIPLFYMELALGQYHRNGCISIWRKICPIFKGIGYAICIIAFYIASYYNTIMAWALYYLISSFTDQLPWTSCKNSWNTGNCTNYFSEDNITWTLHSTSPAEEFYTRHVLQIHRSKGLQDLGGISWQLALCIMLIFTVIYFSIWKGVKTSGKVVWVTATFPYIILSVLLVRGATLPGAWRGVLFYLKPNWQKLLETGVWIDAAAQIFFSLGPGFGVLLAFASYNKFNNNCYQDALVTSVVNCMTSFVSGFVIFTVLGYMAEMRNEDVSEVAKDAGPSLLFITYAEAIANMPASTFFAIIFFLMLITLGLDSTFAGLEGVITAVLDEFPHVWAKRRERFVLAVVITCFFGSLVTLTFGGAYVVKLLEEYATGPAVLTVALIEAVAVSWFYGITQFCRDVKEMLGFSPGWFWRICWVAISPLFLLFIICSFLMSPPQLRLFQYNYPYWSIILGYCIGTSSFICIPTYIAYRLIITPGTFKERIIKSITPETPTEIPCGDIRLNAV
Description: Binding assay SERT (h), [3H]imipramine, CHO cells. The conditions noted are these: read-out: SERT [%]. A digest of the protocol: as §1

In another assay the target is dopaminergic D2 receptor (Homo sapiens, UniProt P14416). Description: Binding assay D2S (h), [3H]methyl-spiperone, HEK-293 cells. Further details: expressed in transfected cells; host or cells: HEK-293 cells. The conditions noted are these: read-out: D2 [%]. A digest of the protocol: as §1
dopaminergic D2 receptor, sequence (P14416 1-414 isoform P14416-2): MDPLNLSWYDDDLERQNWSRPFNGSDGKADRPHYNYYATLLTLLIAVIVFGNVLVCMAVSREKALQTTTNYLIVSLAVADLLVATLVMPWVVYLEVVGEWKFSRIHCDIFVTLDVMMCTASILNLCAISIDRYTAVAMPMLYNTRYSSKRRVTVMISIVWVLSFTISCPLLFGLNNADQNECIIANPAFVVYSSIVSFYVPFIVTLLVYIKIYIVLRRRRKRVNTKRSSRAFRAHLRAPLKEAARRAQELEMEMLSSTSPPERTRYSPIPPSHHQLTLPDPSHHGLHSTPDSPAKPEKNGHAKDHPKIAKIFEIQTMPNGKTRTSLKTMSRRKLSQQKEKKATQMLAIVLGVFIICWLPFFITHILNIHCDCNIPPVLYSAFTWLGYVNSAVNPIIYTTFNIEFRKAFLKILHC
The target of assay [5] is serotoninergic 5-HT2A receptor (Homo sapiens, UniProt P28223). Description: Binding assay 5-HT2A (h), [3H]ketanserin, HEK-293 cells. The conditions noted are these: read-out: 5-HT2A. Further details: expressed in transfected cells; host or cells: HEK-293 cells. A digest of the protocol: as §1
serotoninergic 5-HT2A receptor, sequence (P28223 whole entry): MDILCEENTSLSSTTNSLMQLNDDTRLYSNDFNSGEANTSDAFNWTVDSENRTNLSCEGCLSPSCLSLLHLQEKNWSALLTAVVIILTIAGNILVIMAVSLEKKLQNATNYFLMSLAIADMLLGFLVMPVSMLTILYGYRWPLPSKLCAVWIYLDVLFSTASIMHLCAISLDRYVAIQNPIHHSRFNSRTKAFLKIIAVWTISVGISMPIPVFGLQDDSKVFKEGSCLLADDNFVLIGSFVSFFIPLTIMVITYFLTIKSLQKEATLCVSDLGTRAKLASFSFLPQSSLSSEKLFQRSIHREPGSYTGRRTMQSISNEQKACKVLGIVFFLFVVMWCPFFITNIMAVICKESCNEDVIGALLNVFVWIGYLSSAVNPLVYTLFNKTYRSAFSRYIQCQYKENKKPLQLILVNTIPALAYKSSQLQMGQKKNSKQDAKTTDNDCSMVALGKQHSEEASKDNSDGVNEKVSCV

serotoninergic 5-HT6 receptor, sequence (P50406 whole entry): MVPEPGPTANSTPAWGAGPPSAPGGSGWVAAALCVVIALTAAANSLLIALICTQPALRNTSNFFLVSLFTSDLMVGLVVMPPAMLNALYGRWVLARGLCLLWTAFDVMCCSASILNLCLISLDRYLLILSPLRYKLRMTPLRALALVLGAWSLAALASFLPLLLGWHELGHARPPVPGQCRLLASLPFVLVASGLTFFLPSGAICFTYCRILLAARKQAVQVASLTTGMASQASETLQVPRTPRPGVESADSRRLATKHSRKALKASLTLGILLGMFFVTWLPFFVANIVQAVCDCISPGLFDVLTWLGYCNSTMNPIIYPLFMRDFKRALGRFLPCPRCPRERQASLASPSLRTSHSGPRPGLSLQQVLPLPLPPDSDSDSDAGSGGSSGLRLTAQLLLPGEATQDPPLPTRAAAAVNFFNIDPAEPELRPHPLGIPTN

For `O=S(=O)(NCCCCN1CCC(c2noc3cc(F)ccc23)CC1)c1cccc(Br)c1` [Compound 109, 3-Bromo-N-[4-[4-(6-fluoro-1,2-benzoxazol-3-yl)piperidin-1-yl]butyl]benzenesulphonamide], the inhibition at 1 µM was 92% in assay [1]; 84% in assay [2]; 99% at dopaminergic D3 receptor; 86% in assay [3]; 15% in assay [4]; 100% at dopaminergic D2 receptor. Besides, in assay [5], the inhibition at 1 µM was 93%. The “α1 [%]” value in the assay with adrenergic α1 receptor was 101%.
On to `O=S(=O)(NCCCCN1CCN(c2nsc3ccccc23)CC1)c1ccc(F)c(F)c1` [Compound 226, N-[4-[4-(1,2-Benzothiazol-3-yl)piperazin-1-yl]butyl]-3,4-difluorobenzenesulphonamide], for which the inhibition at 1 µM was 92% in assay [1]; 78% in assay [2]; 90% at dopaminergic D3 receptor; 90% in assay [3]; 4% in assay [4]; 87% on dopaminergic D2 receptor. Moreover, the inhibition at 1 µM in assay [5] was 100%. For the same compound, the “α1 [%]” value in the assay on adrenergic α1 receptor is 94%.
As to `Cc1[nH]c2ccc(Cl)cc2c1C1=CCN(CCCCNS(=O)(=O)c2cccc(O)c2)CC1` [Compound 369, N-[4-[4-(5-Chloro-2-methyl-1H-indol-3-yl)-3,6-dihydro-2H-pyridin-1-yl]butyl]-3-hydroxybenzenesulphonamide], the inhibition at 1 µM in assay [1] is 7%; in assay [2], 99%; on dopaminergic D3 receptor, 97%; in assay [3] it was 62%; in assay [4], 29%; on dopaminergic D2 receptor, 67%. For the same compound, the inhibition at 1 µM in assay [5] came out at 79%. In the assay with adrenergic α1 receptor, the “α1 [%]” value came to 50%.
Consider `Cc1[nH]c2ccc(Cl)cc2c1C1=CCN(CCCNS(=O)(=O)c2cccc(Cl)c2)CC1` [Compound 138, N-[3-[4-(5-Chloro-2-methyl-1H-indol-3-yl)-3,6-dihydro-2H-pyridin-1-yl]propyl]-3-chlorobenzenesulphonamide], for which the inhibition at 1 µM in assay [1] was determined as 52%; in assay [2], 95%; at dopaminergic D3 receptor, 57%; in assay [3] it was 54%; in assay [4] it was 25%; on dopaminergic D2 receptor, 40%. In assay [5], the inhibition at 1 µM is 62%. Moreover, the “α1 [%]” value with adrenergic α1 receptor is reported as 8%.
With `O=S(=O)(NCCCN1CCN(c2nsc3ccccc23)CC1)c1cc2ccc(Cl)cc2s1` [Compound 264, N-[3-[4-(1,2-Benzothiazol-3-yl)piperazin-1-yl]propyl]-6-chlorobenzothiophene-2-sulphonamide], the inhibition at 1 µM is 75% in assay [1]; 63% in assay [2]; 65% at dopaminergic D3 receptor; 54% in assay [3]; -18% in assay [4]; 87% at dopaminergic D2 receptor. The inhibition at 1 µM in assay [5] turned out to be 105%. Moreover, in the assay on adrenergic α1 receptor, the “α1 [%]” value is listed as 53%.
For the compound `O=S(=O)(NCCCN1CCN(c2cccc3c2OCCO3)CC1)c1ccc2cc(Cl)ccc2c1` [Compound 407, 6-Chloro-N-[3-[4-(2,3-dihydro-1,4-benzodioxin-5-yl)piperazin-1-yl]propyl]naphthalene-2-sulphonamide], the inhibition at 1 µM in assay [1] is 102%; in assay [2], 37%; at dopaminergic D3 receptor it was 84%; in assay [3] it was 88%; in assay [4] it was -2%; at dopaminergic D2 receptor, 58%. For the same compound, the inhibition at 1 µM in assay [5] was 50%. The “α1 [%]” value in the assay on adrenergic α1 receptor is 72%.
In the case of `O=S(=O)(NCCCCN1CCC(c2noc3cc(F)ccc23)CC1)c1cccc(F)c1` [Compound 107, 3-Fluoro-N-[4-[4-(6-fluoro-1,2-benzoxazol-3-yl)piperidin-1-yl]butyl]benzenesulphonamide], the inhibition at 1 µM in assay [1] is 91%; in assay [2], 75%; at dopaminergic D3 receptor, 97%; in assay [3] it was 38%; in assay [4], -12%; at dopaminergic D2 receptor it was 104%. The inhibition at 1 µM in assay [5] stood at 95%. Further, in the assay with adrenergic α1 receptor, the “α1 [%]” value is 100%.
Regarding `O=S(=O)(NCCCCN1CCN(c2noc3ccccc23)CC1)c1ccc(Cl)c(Cl)c1` [Compound 93, N-[4-[4-(1,2-Benzoxazol-3-yl)piperazin-1-yl]butyl]-3,4-dichlorobenzenesulphonamide], the inhibition at 1 µM in assay [1] turned out to be 88%; in assay [2] it was 92%; on dopaminergic D3 receptor, 86%; in assay [3], 48%; in assay [4], 0%; on dopaminergic D2 receptor it was 98%. For the same compound, in assay [5], the inhibition at 1 µM amounted to 90%. The “α1 [%]” value with adrenergic α1 receptor was found to be 97%.
With `O=S(=O)(NCCCN1CCC(c2noc3cc(F)ccc23)CC1)c1csc2ccccc12` [Compound 346, N-[3-[4-(6-Fluoro-1,2-benzoxazol-3-yl)piperidin-1-yl]propyl]benzothiophene-3-sulphonamide], the inhibition at 1 µM in assay [1] is 87%; in assay [2] it was 95%; at dopaminergic D3 receptor, 93%; in assay [3] it was 51%; in assay [4] it was 17%; on dopaminergic D2 receptor, 100%. Further, in assay [5], the inhibition at 1 µM was found to be 97%. Moreover, in the assay on adrenergic α1 receptor, the “α1 [%]” value is 103%.
In the case of `O=S(=O)(NCCCCN1CCC(c2noc3cc(F)ccc23)CC1)c1cccc(C(F)(F)F)c1` [Compound 303, N-[4-[4-(6-Fluoro-1,2-benzoxazol-3-yl)piperidin-1-yl]butyl]-3-(trifluoromethyl)-benzenesulphonamide], the inhibition at 1 µM came to 98% in assay [1]; 90% in assay [2]; 97% at dopaminergic D3 receptor; 35% in assay [3]; 9% in assay [4]; 108% at dopaminergic D2 receptor. For the same compound, the inhibition at 1 µM in assay [5] stood at 96%. In addition, the “α1 [%]” value in the assay on adrenergic α1 receptor was determined as 97%.
`O=S(=O)(NCCCN1CCN(c2cccc3c2OCCO3)CC1)c1ccc(F)cc1` [Compound 408, N-[3-[4-(2,3-Dihydro-1,4-benzodioxin-5-yl)piperazin-1-yl]propyl]-4-fluorobenzenesulphonamide]: the inhibition at 1 µM in assay [1] was 83%; in assay [2], 35%; on dopaminergic D3 receptor, 70%; in assay [3] it was 101%; in assay [4], -18%; on dopaminergic D2 receptor, 40%. Also, the inhibition at 1 µM in assay [5] was -50%. In the assay on adrenergic α1 receptor, the “α1 [%]” value turned out to be 70%.
Turning to `O=C1COc2c(cccc2N2CCN(CCCCNS(=O)(=O)c3ccc(Cl)s3)CC2)N1` [Compound 431, 5-Chloro-N-[4-[4-(3-oxo-4H-1,4-benzoxazin-8-yl)piperazin-1-yl]butyl]thiophene-2-sulphonamide], the inhibition at 1 µM in assay [1] was 67%; in assay [2], 35%; on dopaminergic D3 receptor, 103%; in assay [3], 101%; in assay [4], 12%; on dopaminergic D2 receptor, 68%. The inhibition at 1 µM in assay [5] turned out to be 31%. Also, the “α1 [%]” value in the assay on adrenergic α1 receptor is on record as 88%.
Regarding `O=S(=O)(NCCCCN1CCN(c2noc3ccccc23)CC1)c1ccc(F)c(Cl)c1` [Compound 276, N-[4-[4-(1,2-Benzoxazol-3-yl)piperazin-1-yl]butyl]-3-chloro-4-fluorobenzenesulphonamide], the inhibition at 1 µM amounted to 87% in assay [1]; 78% in assay [2]; 69% at dopaminergic D3 receptor; 51% in assay [3]; 3% in assay [4]; 95% at dopaminergic D2 receptor. Further, the inhibition at 1 µM in assay [5] was 87%. Further, the “α1 [%]” value in the assay with adrenergic α1 receptor was determined as 95%.
As for `O=S(=O)(NCCCN1CCC(c2noc3cc(F)ccc23)CC1)c1ccc(F)c(F)c1` [Compound 327, 3,4-Difluoro-N-[3-[4-(6-fluoro-1,2-benzoxazol-3-yl)piperidin-1-yl]propyl]benzenesulphonamide], the inhibition at 1 µM in assay [1] was 86%; in assay [2] it was 99%; at dopaminergic D3 receptor, 97%; in assay [3] it was 67%; in assay [4] it was -1%; at dopaminergic D2 receptor, 89%. Further, the inhibition at 1 µM in assay [5] amounted to 91%. Moreover, in the assay on adrenergic α1 receptor, the “α1 [%]” value is recorded as 109%.
